# Source: the supplement of paper PMC10307832
# Experiments:
# Assay in all cases: relative viability (nuclei count vs DMSO), 5 days (fraction); higher = more cells survive
# FG-4592 + Phenformin = compound: Cc1nc(C(=O)NCC(=O)O)c(O)c2ccc(Oc3ccccc3)cc12 [FG-4592] + N=C(N)NC(=N)NCCc1ccccc1 [Phenformin] (partner 250 µM)
# In short: (§1)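 Five library-drug doses in √10 steps were combined with a fixed anchor-drug dose, or a single drug was given alone, by pin tool to lung cancer cell lines in 1536-well plates the day after seeding. Nuclei were stained and counted after 5 days. Relative viability is the nuclei count in treated wells over that in vehicle wells, taken as the median of duplicate plates.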
# IU1-47 + Pemetrexed = compound: CC1=CC(=C(N1C2=CC=C(C=C2)Cl)C)C(=O)CN3CCCCC3 [IU1-47] + Nc1nc2[nH]cc(CCc3ccc(C(=O)N[C@@H](CCC(=O)O)C(=O)O)cc3)c2c(=O)[nH]1 [Pemetrexed] (partner 0.2 µM)
# In short: as §1
# IU1-47 + Bortezomib = compound: CC1=CC(=C(N1C2=CC=C(C=C2)Cl)C)C(=O)CN3CCCCC3 [IU1-47] + CC(C)C[C@H](NC(=O)[C@H](Cc1ccccc1)NC(=O)c1cnccn1)B(O)O [Bortezomib] (partner 0.002 µM)
# In short: as §1
# IU1-47 + Navitoclax = compound: CC1=CC(=C(N1C2=CC=C(C=C2)Cl)C)C(=O)CN3CCCCC3 [IU1-47] + CC1(C)CCC(c2ccc(Cl)cc2)=C(CN2CCN(c3ccc(C(=O)NS(=O)(=O)c4ccc(N[C@H](CCN5CCOCC5)CSc5ccccc5)c(S(=O)(=O)C(F)(F)F)c4)cc3)CC2)C1 [Navitoclax] (partner 0.5 µM)
# In short: as §1
Cell Line,relative viability (FG-4592 + Phenformin; first compound 0.08 µM),relative viability (FG-4592 + Phenformin; first compound 0.253 µM),relative viability (FG-4592 + Phenformin; first compound 0.8 µM),relative viability (FG-4592 + Phenformin; first compound 2.53 µM),relative viability (FG-4592 + Phenformin; first compound 8 µM),relative viability (IU1-47 + Pemetrexed; first compound 0.08 µM),relative viability (IU1-47 + Pemetrexed; first compound 0.253 µM),relative viability (IU1-47 + Pemetrexed; first compound 0.8 µM),relative viability (IU1-47 + Pemetrexed; first compound 8 µM),relative viability (IU1-47 + Bortezomib; first compound 0.08 µM),relative viability (IU1-47 + Bortezomib; first compound 0.253 µM),relative viability (IU1-47 + Bortezomib; first compound 0.8 µM),relative viability (IU1-47 + Bortezomib; first compound 2.53 µM),relative viability (IU1-47 + Bortezomib; first compound 8 µM),relative viability (IU1-47 + Navitoclax; first compound 0.08 µM),relative viability (IU1-47 + Navitoclax; first compound 0.253 µM),relative viability (IU1-47 + Navitoclax; first compound 0.8 µM),relative viability (IU1-47 + Navitoclax; first compound 8 µM),relative viability (IU1-47 + Pemetrexed; first compound 2.53 µM),relative viability (IU1-47 + Navitoclax; first compound 2.53 µM)
LCLC-97TM1,0.415,0.385,0.44,0.423,0.426,0.173,0.15,0.154,0.172,0.9,1.13,0.455,0.425,0.261,0.526,0.502,0.517,0.404,–,–
LOU-NH91,0.673,0.647,0.551,0.677,0.677,0.389,0.386,0.526,0.35,0.515,0.473,0.483,0.535,0.451,0.772,0.687,0.638,0.652,0.38,0.609
LU99A,0.839,0.774,0.706,0.82,0.921,0.178,0.227,0.155,0.191,1.12,1.23,1.06,1.12,1.09,0.824,0.815,0.974,0.75,0.187,0.937
LXF-289,0.518,0.479,0.527,0.457,0.51,0.888,0.886,0.851,0.856,0.993,1.06,1.05,1.05,0.954,0.993,1,0.985,0.975,0.945,0.92
NCI-H23,0.794,0.789,0.844,0.767,0.76,0.608,–,0.59,0.692,0.988,1.24,1.27,1.02,0.949,0.791,0.903,0.987,0.716,0.708,0.925
NCI-H322M,0.597,0.716,0.728,0.715,0.708,0.662,0.648,0.829,0.607,1.22,1.2,1.12,1.17,1.29,1.31,1.21,1.1,1.23,0.582,1.27
NCI-H441,0.876,0.69,0.928,0.686,0.848,0.255,0.273,0.278,0.265,0.732,0.574,0.489,0.561,0.56,0.574,0.497,0.655,0.548,0.306,0.684
NCI-H460,0.538,0.521,0.548,0.54,0.491,0.0569,0.0572,0.0551,0.0695,1.14,1.25,1.14,1.2,0.469,1.3,1.08,1.36,1.38,0.0515,1.02
NCI-H520,0.31,0.595,–,0.51,0.465,0.548,0.711,0.831,0.577,0.679,0.687,0.821,0.576,0.408,1.22,1.12,1.26,0.981,0.847,1.02
NCI-H596,0.637,0.712,0.512,0.72,0.473,0.491,–,0.494,0.446,1.03,0.929,1.11,1.07,0.995,1.05,0.961,0.982,1.05,0.508,0.869
NCI-H647,0.435,0.536,0.46,0.467,0.457,0.155,0.189,0.182,0.159,0.97,0.904,1.08,0.859,0.862,1.31,1.3,1.19,1.04,0.166,1.26
NCI-H838,0.545,0.581,0.5,0.505,0.583,0.241,0.233,0.259,0.246,0.869,0.952,0.904,0.624,0.564,1.25,1.21,1.32,1.15,0.274,1.27
NCI-H1355,0.378,0.422,0.358,0.431,0.449,1.06,1.08,1.12,1.07,1.3,1.21,1.33,0.978,1.16,0.946,0.943,0.977,0.848,–,0.898
NCI-H1437,0.297,0.355,0.343,0.287,0.31,0.336,0.336,0.314,0.311,0.599,0.496,0.495,0.486,0.469,1.15,1.08,1.1,0.955,0.308,0.982
NCI-H1650,0.464,0.448,0.338,0.586,0.51,0.419,0.338,0.335,0.294,0.194,0.171,0.22,0.203,0.195,1.08,1.35,1.08,0.918,0.36,1.36
NCI-H1651,0.32,0.316,0.335,0.355,0.421,0.587,0.559,0.616,0.451,0.988,0.977,0.995,0.946,0.89,1.25,1.13,1.16,1.12,0.311,–
NCI-H1666,0.611,0.518,0.613,0.377,0.562,0.894,0.839,0.888,0.841,0.811,0.831,0.926,0.728,0.727,1.1,1.04,0.89,0.824,0.873,0.912

Cell Line,relative viability (FG-4592 + Phenformin; first compound 0.08 µM),relative viability (FG-4592 + Phenformin; first compound 0.253 µM),relative viability (FG-4592 + Phenformin; first compound 0.8 µM),relative viability (FG-4592 + Phenformin; first compound 2.53 µM),relative viability (FG-4592 + Phenformin; first compound 8 µM),relative viability (IU1-47 + Pemetrexed; first compound 0.08 µM),relative viability (IU1-47 + Pemetrexed; first compound 0.253 µM),relative viability (IU1-47 + Pemetrexed; first compound 0.8 µM),relative viability (IU1-47 + Pemetrexed; first compound 8 µM),relative viability (IU1-47 + Bortezomib; first compound 0.08 µM),relative viability (IU1-47 + Bortezomib; first compound 0.253 µM),relative viability (IU1-47 + Bortezomib; first compound 0.8 µM),relative viability (IU1-47 + Bortezomib; first compound 2.53 µM),relative viability (IU1-47 + Bortezomib; first compound 8 µM),relative viability (IU1-47 + Navitoclax; first compound 0.08 µM),relative viability (IU1-47 + Navitoclax; first compound 0.253 µM),relative viability (IU1-47 + Navitoclax; first compound 0.8 µM),relative viability (IU1-47 + Navitoclax; first compound 8 µM),relative viability (IU1-47 + Pemetrexed; first compound 2.53 µM),relative viability (IU1-47 + Navitoclax; first compound 2.53 µM)
NCI-H1734,0.398,0.387,0.343,0.377,0.354,0.454,0.415,0.446,0.463,0.936,0.93,0.906,–,0.874,0.943,0.873,0.823,0.734,0.443,–
NCI-H1755,0.588,0.566,0.556,0.581,0.627,0.434,0.439,0.825,0.445,1.15,1.06,1.03,1.09,0.92,1.15,1.05,1.06,1.01,0.454,1.07
NCI-H1792,0.355,0.247,–,0.352,0.24,0.529,0.817,0.789,0.35,1.03,1.07,1.1,0.879,0.662,0.65,0.725,0.76,0.251,0.877,0.678
NCI-H1915,0.327,0.362,0.387,0.354,0.398,0.586,0.515,0.46,0.553,1.02,1.05,1.04,–,1.02,0.822,0.805,0.828,0.833,0.562,–
NCI-H1975,0.384,0.399,0.369,0.384,0.396,0.278,0.289,0.297,0.255,0.375,0.408,0.455,0.308,0.317,1.25,1.14,1.38,0.888,0.299,1.18
NCI-H1993,0.513,0.427,0.5,0.421,0.507,0.631,0.588,0.672,0.482,1.26,1.25,1.18,1.37,1.18,0.876,0.938,0.893,0.895,0.346,0.979
NCI-H2009,0.502,0.402,0.53,0.454,0.549,1.1,1.05,1.01,1.05,1.11,1.13,0.998,0.513,1.05,1.23,1.2,1.16,1.18,1.08,1.14
NCI-H2023,0.427,0.38,0.437,0.442,0.379,0.22,0.232,0.246,0.204,0.94,1.15,1,0.481,1.12,1.02,0.934,1.05,1.1,0.208,1.02
NCI-H2085,0.646,0.618,0.536,0.592,0.647,0.925,0.818,0.846,0.885,0.969,0.968,1.06,0.948,0.944,1.15,1.22,1.13,1.01,0.83,1.19
NCI-H2087,0.519,0.416,0.454,0.493,0.529,0.668,0.637,0.693,0.556,1.12,0.978,0.93,0.914,0.616,1.1,0.922,1.11,0.99,0.716,0.947
NCI-H2126,0.554,0.5,0.51,0.492,0.461,0.69,0.741,0.704,0.733,1.17,1.18,1.19,0.894,1.04,0.987,0.823,0.897,0.809,0.49,0.545
NCI-H2228,0.358,0.221,0.225,0.348,0.24,0.37,0.345,0.387,0.362,1.25,0.922,0.949,1.1,0.932,0.871,0.97,1.69,0.832,0.362,0.659
NCI-H2347,0.284,–,0.376,0.5,0.441,0.436,0.39,0.447,0.419,0.913,0.76,0.892,0.827,0.746,0.964,0.888,0.912,0.802,0.395,0.874
NCI-H2405,0.282,–,0.382,0.342,0.42,1.05,1.1,1.05,1.09,1.05,0.876,1.07,0.894,0.994,1.02,0.902,0.862,0.897,1.02,–
NCI-H3122,0.42,0.349,0.398,0.334,0.385,0.197,0.206,0.204,0.205,0.962,1.02,1.08,1.09,0.996,1.02,0.966,1.02,1,0.218,1.01
PC-3 [JPC-3],0.489,0.457,0.531,0.462,0.486,1.13,1.12,1.04,1.07,0.909,0.805,0.841,–,0.885,0.834,0.817,0.804,0.788,0.774,–
